How the values were obtained:
Monochoria vaginalis = assay: Paddy field farming herbicidal composition test, plant mortality; type: in vivo
Excerpt: (§1) X is % damage by uracil compound (a) of formula 1 at the rate of application of p kg/ha; Y is % damage by conventional herbicidal compound (b) at the rate of application of q kg/ha; and E is the expected damage caused by compounds (a) and (b) at a rate of application of p and q kg/ha.
(§2) The expected activity for a given combination of two herbicides can be calculated using equation 1 above.

Ludwigia prostrate = assay: as above; type: in vivo
Excerpt: as §1, §2

rice plant = assay: Paddy field farming herbicidal composition test, plant mortality (crop)
Excerpt: as §1, §2

wheat = assay: Dry field farming herbicidal composition test, plant mortality (crop)
Excerpt: as §1, §2

Alopecurus aequalis = assay: Dry field farming herbicidal composition test, plant mortality; type: in vivo; settings: in % (unit assumed)
Excerpt: as §1, §2

Porippa islandica = assay: as above; type: in vivo
Excerpt: as §1, §2

Capsella bursapastoris = assay: as above; type: in vivo; settings: in % (unit assumed)
Excerpt: as §1, §2

Lamium amplexicaule = assay: as above; type: in vivo; settings: in % (unit assumed)
Excerpt: as §1, §2

wild amaranth = assay: Nonselective composition of 1 uracil compound and 2 herbicidally active compounds, plant mortality; type: in vivo
Excerpt: as §1, §2

ryegrass = assay: as above; type: in vivo
Excerpt: as §1, §2

[1] = Amaranthus caudatus, 480 h, read-out: Wild amaranth mortality (measured value)
[2] = 480 h, read-out: ryegrass mortality (measured value)

COc1cc(OC)nc(NC(=O)NS(=O)(=O)Cc2ccccc2C(=O)O)n1 [Bensulfuron]
Monochoria vaginalis mortality (measured value) (Monochoria vaginalis; 10 g/ha): 15 | Monochoria vaginalis mortality (measured value) (Monochoria vaginalis; 20 g/ha): 35 | Monochoria vaginalis mortality (measured value) (Monochoria vaginalis; 40 g/ha): 51 | Ludwigia prostrate mortality (measured value) (Ludwigia prostrate; 10 g/ha): 20% | Ludwigia prostrate mortality (measured value) (Ludwigia prostrate; 20 g/ha): 40% | Ludwigia prostrate mortality (measured value) (Ludwigia prostrate; 40 g/ha): 55% | Rice plant mortality (measured value) (rice plant; 10 g/ha): 0 | Rice plant mortality (measured value) (rice plant; 20 g/ha): 0 | Rice plant mortality (measured value) (rice plant; 40 g/ha): 1

COC(=O)c1ccc(CNS(C)(=O)=O)cc1S(=O)(=O)NC(=O)Nc1nc(OC)cc(OC)n1 [Mesosulfuron]
Wheat mortality, measured value (wheat; 2 g/ha): 0 | Wheat mortality, measured value (wheat; 4 g/ha): 0 | Wheat mortality, measured value (wheat; 8 g/ha): 1 | Alopecurus aequalis mortality, measured value (Alopecurus aequalis; 2 g/ha): 15 | Alopecurus aequalis mortality, measured value (Alopecurus aequalis; 4 g/ha): 32 | Alopecurus aequalis mortality, measured value (Alopecurus aequalis; 8 g/ha): 64 | Porippa islandica mortality, measured value (Porippa islandica; 2 g/ha): 12 | Porippa islandica mortality, measured value (Porippa islandica; 4 g/ha): 27 | Porippa islandica mortality, measured value (Porippa islandica; 8 g/ha): 61 | Capsella bursapastoris mortality, measured value (Capsella bursapastoris; 2 g/ha): 10 | Capsella bursapastoris mortality, measured value (Capsella bursapastoris; 4 g/ha): 30 | Capsella bursapastoris mortality, measured value (Capsella bursapastoris; 8 g/ha): 59 | Lamium amplexicaule mortality, measured value (Lamium amplexicaule; 2 g/ha): 13 | Lamium amplexicaule mortality, measured value (Lamium amplexicaule; 4 g/ha): 26 | Lamium amplexicaule mortality, measured value (Lamium amplexicaule; 8 g/ha): 55

CCOC1Oc2ccc(OS(C)(=O)=O)cc2C1(C)C (centres unmarked) [Ethofumesate]
pest or weed control at 250 g/ha (wild amaranth; [1]): 20% | pest or weed control at 250 g/ha (ryegrass; [2]): 25%

C/C(=N\NC(=O)Nc1cc(F)cc(F)c1)c1ncccc1C(=O)O [Diflufenzopyr]
pest or weed control at 12.5 g/ha (wild amaranth; [1]): 20% | pest or weed control at 12.5 g/ha (ryegrass; [2]): 20%

O=C(Nc1ccc(F)cc1)c1cccc(Oc2cccc(C(F)(F)F)c2)n1 [Picolinafen]
Wild amaranth mortality (measured value) (wild amaranth; 25 g ai/ha): 25 | ryegrass mortality (measured value) (ryegrass; 25 g ai/ha): 0

COC(=O)NS(=O)(=O)c1ccc(N)cc1 [Asulam]
pest or weed control at 1250 g/ha (wild amaranth; [1]): 20% | pest or weed control at 1250 g/ha (ryegrass; [2]): 25%

CC(C)c1ccc(NC(=O)N(C)C)cc1 [Isoproturon]
Wheat mortality, measured value (wheat; 150 g/ha): 0 | Wheat mortality, measured value (wheat; 300 g/ha): 0 | Wheat mortality, measured value (wheat; 600 g/ha): 1 | Alopecurus aequalis mortality, measured value (Alopecurus aequalis; 150 g/ha): 15 | Alopecurus aequalis mortality, measured value (Alopecurus aequalis; 300 g/ha): 32 | Alopecurus aequalis mortality, measured value (Alopecurus aequalis; 600 g/ha): 64 | Porippa islandica mortality, measured value (Porippa islandica; 150 g/ha): 10 | Porippa islandica mortality, measured value (Porippa islandica; 300 g/ha): 26 | Porippa islandica mortality, measured value (Porippa islandica; 600 g/ha): 53 | Capsella bursapastoris mortality, measured value (Capsella bursapastoris; 150 g/ha): 11 | Capsella bursapastoris mortality, measured value (Capsella bursapastoris; 300 g/ha): 29 | Capsella bursapastoris mortality, measured value (Capsella bursapastoris; 600 g/ha): 63 | Lamium amplexicaule mortality, measured value (Lamium amplexicaule; 150 g/ha): 12 | Lamium amplexicaule mortality, measured value (Lamium amplexicaule; 300 g/ha): 25 | Lamium amplexicaule mortality, measured value (Lamium amplexicaule; 600 g/ha): 49

CC(C)N.O=C(O)CNCP(=O)(O)O [Glyphosate-IPA]
Wild amaranth mortality (measured value) (wild amaranth; 300 g ai/ha): 10 | ryegrass mortality (measured value) (ryegrass; 300 g ai/ha): 10

COCc1cnc(C2=NC(C)(C(C)C)C(=O)N2)c(C(=O)O)c1 (centres unmarked) [Imazamox]
pest or weed control at 8.3 g/ha (wild amaranth; [1]): 20% | pest or weed control at 8.3 g/ha (ryegrass; [2]): 30%

COc1cc(OC)nc(NC(=O)NS(=O)(=O)c2c(C(=O)O)cnn2C)n1 [Pyrazosulfuron]
Monochoria vaginalis mortality (measured value) (Monochoria vaginalis; 2 g/ha): 20 | Monochoria vaginalis mortality (measured value) (Monochoria vaginalis; 4 g/ha): 40 | Monochoria vaginalis mortality (measured value) (Monochoria vaginalis; 5 g/ha): 40 | Monochoria vaginalis mortality (measured value) (Monochoria vaginalis; 8 g/ha): 63 | Monochoria vaginalis mortality (measured value) (Monochoria vaginalis; 10 g/ha): 67 | Ludwigia prostrate mortality (measured value) (Ludwigia prostrate; 2 g/ha): 15% | Ludwigia prostrate mortality (measured value) (Ludwigia prostrate; 4 g/ha): 35% | Ludwigia prostrate mortality (measured value) (Ludwigia prostrate; 5 g/ha): 45% | Ludwigia prostrate mortality (measured value) (Ludwigia prostrate; 8 g/ha): 65% | Ludwigia prostrate mortality (measured value) (Ludwigia prostrate; 10 g/ha): 62% | Rice plant mortality (measured value) (rice plant; 2 g/ha): 0 | Rice plant mortality (measured value) (rice plant; 4 g/ha): 0 | Rice plant mortality (measured value) (rice plant; 5 g/ha): 0 | Rice plant mortality (measured value) (rice plant; 8 g/ha): 1 | Rice plant mortality (measured value) (rice plant; 10 g/ha): 1

CCC(C)(CC)c1cc(NC(=O)c2c(OC)cccc2OC)on1 [Isoxaben]
pest or weed control at 31 g/ha (wild amaranth; [1]): 30% | pest or weed control at 31 g/ha (ryegrass; [2]): 0%
